In patent US9067896B2, “Crystalline forms of 3-(2,6-dichloro-3,5-dimethoxy-phenyl)-1-{6-[4-(4-ethyl-piperazin-1-yl) -phenylamino]-pyrimidin-4-yl}-1-methyl-urea and salts thereof” (Novartis AG, priority 2009, dated 2015):
Structures can show the parent of a compound that is named as a salt.

Assays:
Assay type in all cases: physicochemical
[1] = Hygroscopicity from DVS sorption/desorption isotherms
Protocol: Hygroscopicity was measured from sorption/desorption isotherms using Surface Measurement System DVS-1 at 25±0.5° C. Samples were evaluated at various humidities including 75%, 85%, and 95%.
The free base (anhydrous and monohydrate) and its phosphate salt (form A) were subjected to sorption and desorption cycle using a VTI brand instrument. The solids were collected after the experiment and analyzed. […] The DVS plots are shown in FIGS. 4A (free base, anhydrous), 4B (phosphate salt (form A) and 4C (free base, monohydrate). The maximum water uptake for the phosphate salt (form A) was less than 2% (i.e. 0.7%) at 25° C. up to 95% relative humidity (rh) (see Table 9). The maximum water uptake for the monohydrate was less than 1.4% at 25° C. up to 95% RH. The monohydrate with an approximate water content of 3% could not be completely dried during the experiment but the water that could be removed was reversibly reabsorbed. The plateau of existence of the monohydrate form is found to be within 10% and 95% RH with a slight hysteresis at the second desorption cycle.

[2] = Intrinsic dissolution rate; conditions: 37° C., disc 200 rpm, 290 nm
Protocol: The intrinsic dissolution rate measurements were carried out in 0.5 cm^2 VanKel punch and die assemblies at a pellet pressure of 2000 pounds. […]
The intrinsic dissolution rate was determined for the phosphate salt in water, pH=6.8 and 0.1N HCl, and for the free base monohydrate in pH=6.8, 4.5 and 0.1N HCl. The measurements were carried out on a VanKel instrument using a Cary UV/VIS spectrophotometer (Table 2).

Solid state stability = conditions: one week at 80° C., sealed containers and 75% relative humidity, alone and with excipients as 1% mixture
Protocol: In the solid state, the samples were stressed for one week at 80° C., in sealed containers and under 75% relative humidity. […] The amount of degradation products of the anhydrous free base as assessed by HPLC was 1% or less (based on peak area), while the degradation of the phosphate salt accounted for 1.4% or less.

Solution stability = conditions: 1 week at 50° C.
Protocol: The solution stability of the free base was tested in buffers ranging from pH 1 to pH 9 for 1 week at 50° C. At pH 5 and higher, the free base was stable, and after accounting for minor initial impurities, degradation was less than 2%. At pH 3, degradation was about 4% and at pH 1, degradation was about 15%. The stability was also tested in water and several organic solvents (1 week at 50° C.).
Without being bound by mechanism, the stability difference between the free base and phosphate salt may be due to the higher aqueous solubility of the phosphate salt compared to the free base, as well as the tendency of the phosphate salt to cause the pH of water to decrease, which may increase the rate of degradation.

[3] = Polymorphic stability by XRPD (equilibration, crystallization, evaporation, precipitation, compression, granulation); set-up: key to XRPD Result, crystallization by evaporation: —: no change detected; conditions: for XRPD Result, crystallization by evaporation: unstirred; for XRPD after crystallization from hot saturated solution: dissolved at 60° C., cooled in ice bath
Protocol: Slurries of samples were stirred at high speed for 24 hours at 25±0.5° C., filtered, and the solid collected analyzed by XRPD.
About 20 mg of the phosphate salt (form A) was equilibrated with 2 ml of a variety of solvents for at least 24 h at room temperature. Then the solution was filtered and the residue dried overnight at 50° C. under house vacuum. The solid obtained was investigated by XRPD. […]
About 20 mg of the phosphate salt (form A) was also equilibrated at about 50° C. with 2 ml solvent for at least 24 h. Then the solution was filtered and the residue dried overnight at 50° C. under house vacuum. The solid obtained was investigated by XRPD.
About 20 mg of the phosphate salt (form A) was dissolved in 2 ml solvent at 60° C. The solution was filtered. The clear filtrate obtained was cooled in an ice bath and agitated. The precipitate was collected on a filter, dried and investigated by XRPD.
About 20 mg of the phosphate salt (form A) was mixed with 2 ml solvent at 25° C. After stirring overnight, the solution was filtered. The filtrate was placed under nitrogen flow to evaporate the solvent. The residual solid was collected and investigated. The above evaporation was performed without stirring. Upon evaporation from THF/water (1:1) without stirring, a solid with XRPD pattern similar to that of the B form (see FIG. 1C), was obtained once. Subsequently, under these conditions, amorphous material, rather than form B, was obtained.
The same experiments (as described above for the 25° C. evaporation) were performed at 50° C.
Two different solvent combinations were tested. The phosphate salt (form A) was dissolved in DMSO where its solubility was high. A solvent (the anti-solvent) in which the form A was highly insoluble was added to the solution. The precipitate was collected on a filter, dried, and investigated by XRPD.
The phosphate salt (form A, 300 mg) was compressed for 5 minutes at 4000 pounds with a hydraulic press (diameter of the tablets 8 mm).
A solvent (water or ethanol) was added drop wise to the phosphate salt (form A) placed in a mortar until the solid in the mortar was sufficiently wet, and ground using a pestle until a paste-like consistency was obtained. The paste was dried at around 40° C. and under reduced pressure for >8 hours.

[4] = Relative humidity 5%, after the 95% step
[5] = Relative humidity 5%, before the 95% step
[6] = Relative humidity 25%, after the 95% step
[7] = Relative humidity 25%, before the 95% step
[8] = Relative humidity 50%, after the 95% step
[9] = Relative humidity 50%, before the 95% step
[10] = Relative humidity 75%, after the 95% step
[11] = Relative humidity 75%, before the 95% step
[12] = Relative humidity 85%, after the 95% step
[13] = Relative humidity 85%, before the 95% step

CCN1CCN(c2ccc(Nc3cc(N(C)C(=O)Nc4c(Cl)c(OC)cc(OC)c4Cl)ncn3)cc2)CC1 [Free Base, 3-(2,6-Dichloro-3,5-dimethoxy-phenyl)-1-{6-[4-(4-ethyl-piperazin-1-yl)-phenylamino]-pyrimidin-4-yl}-1-methyl-urea]
hygroscopicity (in words) ([1]; listed as anhydrous free base): slightly hygroscopic | Intrinsic DR value ([2]; HCl 0.1N, listed as Anhydrous Free Base): 0.28 mg/min/cm^2 | Intrinsic DR value ([2]; Water, listed as Anhydrous Free Base): 0.01 mg/min/cm^2 | amount of degradation products by HPLC (peak area) (Solid state stability; listed as anhydrous free base): ≤ 1% | degradation in solution (Solution stability; 1:1 acetonitrile/water, listed as free base): about 8% | degradation in solution (Solution stability; buffer pH 1): about 15% | degradation in solution (Solution stability; buffer pH 3): about 4% | degradation in solution (Solution stability; buffers pH 5 and higher): less than 2% | degradation in solution (Solution stability; isopropanol): stable | degradation in solution (Solution stability; water, listed as free base): stable | XRPD after equilibration with solvents ([3]; room temperature, water, ethanol, isopropanol, ethyl acetate, acetone): No new XRPD pattern was observed

CCN1CCN(c2ccc(Nc3cc(N(C)C(=O)Nc4c(Cl)c(OC)cc(OC)c4Cl)ncn3)cc2)CC1 [Phosphate salt (form A)]
weight gain due to water absorption (DVS) ([1]; 75% RH, listed as phosphate salt): < 1% | weight gain due to water absorption (DVS) ([1]; 85% RH): < 1% | weight gain due to water absorption (DVS) ([1]; 95% RH, listed as phosphate salt): < 2% | Adsorption Weight Gain (%) ([1]; Relative humidity 0%): 0.000% | Desorption Weight Gain (%) ([1]; Relative humidity 0%): 0.000% | Adsorption Weight Gain (%) [1, 4]: 0.000% | Desorption Weight Gain (%) [1, 4]: 0.048% | Adsorption Weight Gain (%) [1, 5]: 0.016% | Desorption Weight Gain (%) [1, 5]: 0.091% | Adsorption Weight Gain (%) [1, 6]: 0.177% | Desorption Weight Gain (%) [1, 6]: 0.447% | Adsorption Weight Gain (%) [1, 7]: 0.165% | Desorption Weight Gain (%) [1, 7]: 0.507% | Adsorption Weight Gain (%) [1, 8]: 0.334% | Desorption Weight Gain (%) [1, 8]: 0.705% | Adsorption Weight Gain (%) [1, 9]: 0.309% | Desorption Weight Gain (%) [1, 9]: 0.738% | Adsorption Weight Gain (%) [1, 10]: 0.467% | Desorption Weight Gain (%) [1, 10]: 1.275% | Adsorption Weight Gain (%) [1, 11]: 0.437% | Desorption Weight Gain (%) [1, 11]: 1.022% | Adsorption Weight Gain (%) [1, 12]: 0.520% | Desorption Weight Gain (%) [1, 12]: 1.421% | Adsorption Weight Gain (%) [1, 13]: 0.495% | Desorption Weight Gain (%) [1, 13]: 1.245% | Adsorption Weight Gain (%) ([1]; Relative humidity 95%): 0.653% | Desorption Weight Gain (%) ([1]; Relative humidity 95%): 1.547% | hygroscopicity (in words) ([1]; listed as phosphate salt): slightly hygroscopic | Intrinsic DR value ([2]; HCl 0.1N): 1.0661 mg/min/cm^2 | Intrinsic DR value ([2]; Water): 0.3279 mg/min/cm^2 | Intrinsic DR value ([2]; pH = 6.8): 0.0056 mg/min/cm^2 | amount of degradation products by HPLC (peak area) (Solid state stability): ≤ 1.4% | degradation in solution (Solution stability; 1:1 acetonitrile/water, listed as phosphate salt): ~70% | degradation in solution (Solution stability; acetonitrile, form A): stable | degradation in solution (Solution stability; methanol, form A): about 8% | degradation in solution (Solution stability; water, listed as phosphate salt): about 45% | XRPD after compression ([3]; 300 mg, 5 minutes at 4000 pounds, hydraulic press): No change of crystalline modification | XRPD after crystallization by evaporation ([3]; 25° C., solution stirred during evaporation): form A was consistently obtained | XRPD after crystallization by evaporation ([3]; 25° C., without stirring, 1:1 solutions of water with ethanol, 2-propanol, acetone, tetrahydrofuran): amorphous material was obtained | XRPD after crystallization by evaporation ([3]; 50° C., solution stirred): Form A was also obtained | XRPD Result, crystallization by evaporation ([3]; 50° C., 2-propanol/water 1:1): — | XRPD Result, crystallization by evaporation ([3]; 50° C., Acetone/water 1:1): — | XRPD Result, crystallization by evaporation ([3]; 50° C., Acetonitrile/water 1:1): Amorphous | XRPD Result, crystallization by evaporation ([3]; 50° C., Ethanol/water 1:1): Amorphous | XRPD Result, crystallization by evaporation ([3]; 50° C., Methanol/water 1:1): — | XRPD Result, crystallization by evaporation ([3]; 50° C., Tetrahydrofuran/water 1:1): — | XRPD after equilibration with solvents ([3]; at least 24 h at about 50° C., solvents of Table 7): No new XRPD pattern was observed | XRPD after equilibration with solvents ([3]; at least 24 h at room temperature, solvents of Table 6): No new XRPD pattern was observed | XRPD after crystallization from hot saturated solution ([3]; 1:1 solutions of water with methanol, ethanol, 2-propanol, acetone, tetrahydrofuran): No change in polymorphic form | XRPD after crystallization from hot saturated solution ([3]; DMSO): form change noted | XRPD after precipitation by addition of anti-solvent ([3]; dissolved in DMSO, anti-solvents methanol, ethanol, isopropanol, acetone, acetonitrile, THF, ethyl acetate, propyl acetate, toluene, methyl t-butyl ether, 1,4-dioxane, methylene chloride): No change in Form | XRPD after granulation ([3]; wetted with water or ethanol, ground, dried at around 40° C.): no changes in the XRPD spectra
